According to patent US8173682B2, “Substituted pyridones as inhibitors of poly(ADP-ribose) polymerase (PARP)” (Aventis Pharmaceuticals Inc., priority 2004, dated 2012):
Structures can show the parent of a compound that is named as a salt.

Biological target: T1, recombinant human PARP (PARP1) (Homo sapiens, UniProt P09874)
T1 construct: Full length human PARP (PARP1) is assembled from PCR fragments; His6 tag with TEV site, from the pFastBac-HTb vector (own knowledge of the vector); made in house; host or cells: insect cells, baculovirus (Bac-to-Bac, Gibco-BRL)
Assay: PARP enzyme assay, Method A (radioactivity or 'ELISA' enzyme assay with partially purified enzyme)
Type: biochemical
Settings: recombinant human PARP preparation, radioactive or ELISA enzyme assay
From the text: Two different methods are employed in determining the activity of the compounds of this invention in inhibiting the activity of PARP enzyme, designated as Method A and Method B respectively as set forth below.
Method A: Cloning and Expression, and Partial Purification of Recombinant Human PARP:
Full length human PARP (PARP1) is assembled from PCR fragments of a clone from a human brain cDNA library and two Incyte clones. The PARP gene (3046 bp) is sub-cloned into pFastBac-HTb vector to give PARP-pFastBac-HTb and the sequence of this clone is verified. PARP-pFastBac-HTb is expressed to obtain protein using the Bac-to-Bac expression protocol from Gibco-BRL. The recombinant virus generated is used to scale up the material for purification.
Cell pellets from cell broth of cells expressing PARP are treated with a cocktail of protease inhibitors and lysed by 4 freeze-thaw cycles. The material is suspended in 10 mM HEPES/0.1M NaCl/pH 7.2, stirred, and then centrifuged. A 40%-70% ammonium sulfate cut of protein pellet is obtained from the supernatant. The pellet is solubilized in 10 mM HEPES/pH 7.2 and centrifuged. The supernatant buffer is exchanged to 10 mM HEPES/pH 7.2/0.1M NaCl/25% glycerol by dialysis or with a desalting column. The enzyme preparation is stored at −20° C. until use.
The compounds of this invention are then tested with this enzyme preparation using either the radioactive enzyme assay or by the “ELISA” enzyme assay as set forth below.
Radioactivity Enzyme Assay:
Incorporation of radioactivity from labeled NAD into acid-precipitated protein is measured. The reaction mixture (volume 100 μL or 50 μL, in a test-tube or 96-well plate) contained 100 μg/mL calf thymus DNA (sonicated), 100 μg/mL histones, 100 mM Tris (pH 8.0), 1.0 mM DTT, 10 mM MgCl2, NAD (200 μM, 0.65 microcurie/mL), and varying amounts of enzyme. The reaction was incubated for 10 min at 37° C. or at room temperature for 60 min. The reaction was stopped and protein precipitated by addition of ice-cold trichloroacetic acid (TCA; 10% or 20% aqueous w/v). After brief storage in ice or at 4° C. for 2 hrs, the reaction mixture is filtered under vacuum through a glass fiber filter (2.5 cm disc, or 96-well filter plate). After washing with TCA and ethanol, the filter is dried and counted for tritium CPM after addition of scintillation fluid.
Incorporation of biotin-NAD into histone coated on plate is measured. A 96-well protein-binding EIA plate is coated with histone and blocked with bovine serum albumin. The reaction mixture (50 μL) contained DNA, buffer, enzyme, (test compound), and 250 μM of NAD and 5 μL of biotin-NAD (Trevigen). After reaction at room temperature the wells are washed and treated with Extravidin (Sigma). After incubation and washing color is developed with the peroxidase substrate TMB (Sigma). The TMB reaction is quenched with 2M sulfuric acid and the absorbance at 450 nm is read.

T1 sequence (P09874 whole entry, the tested form may be a part): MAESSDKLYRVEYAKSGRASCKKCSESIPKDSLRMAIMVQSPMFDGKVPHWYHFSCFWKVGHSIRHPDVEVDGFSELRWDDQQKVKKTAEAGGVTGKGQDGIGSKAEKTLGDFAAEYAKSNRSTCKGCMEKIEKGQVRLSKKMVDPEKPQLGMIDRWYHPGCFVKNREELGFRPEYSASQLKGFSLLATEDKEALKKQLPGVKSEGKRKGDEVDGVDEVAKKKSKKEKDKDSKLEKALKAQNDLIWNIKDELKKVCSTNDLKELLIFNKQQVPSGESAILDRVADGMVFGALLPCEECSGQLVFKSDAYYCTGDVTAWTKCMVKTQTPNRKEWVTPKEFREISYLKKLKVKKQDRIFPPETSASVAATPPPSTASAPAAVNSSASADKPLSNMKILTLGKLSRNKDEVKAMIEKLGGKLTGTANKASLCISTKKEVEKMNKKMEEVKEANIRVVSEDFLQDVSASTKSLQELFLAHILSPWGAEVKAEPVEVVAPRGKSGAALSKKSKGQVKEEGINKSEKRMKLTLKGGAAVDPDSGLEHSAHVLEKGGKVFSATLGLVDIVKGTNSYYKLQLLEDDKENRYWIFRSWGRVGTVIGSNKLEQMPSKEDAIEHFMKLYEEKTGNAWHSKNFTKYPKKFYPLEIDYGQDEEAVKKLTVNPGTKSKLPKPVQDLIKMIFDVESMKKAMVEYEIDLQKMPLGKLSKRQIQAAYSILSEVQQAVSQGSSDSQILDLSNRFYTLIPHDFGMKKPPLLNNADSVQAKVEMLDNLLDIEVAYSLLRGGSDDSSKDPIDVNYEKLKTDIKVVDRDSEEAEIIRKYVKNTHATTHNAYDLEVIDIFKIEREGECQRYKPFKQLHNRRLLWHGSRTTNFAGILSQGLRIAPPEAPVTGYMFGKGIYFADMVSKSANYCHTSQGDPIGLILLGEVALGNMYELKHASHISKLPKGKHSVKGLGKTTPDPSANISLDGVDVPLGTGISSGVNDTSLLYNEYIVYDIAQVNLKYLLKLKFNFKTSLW

| IC50 [µM] | Compound |
| --- | --- |
| 0.48 | CCc1cc(-c2ccc(CN3CCCC3)s2)c(C)[nH]c1=O [Example 171, 3-Ethyl-6-methyl-5-(5-pyrrolidin-1-ylmethylthiophen-2-yl)-1H-pyridin-2-one hydrochloride] |
| 0.68 | CCc1cc(-c2ccc(S(=O)(=O)N3CCCC(CO)C3)s2)c(C)[nH]c1=O (centres unmarked) [Example 90, 3-Ethyl-5-[5-(3-hydroxymethylpiperidine-1-sulfonyl)thiophen-2-yl]-6-methyl-1H-pyridin-2-one] |
| 0.14 | CCc1cc(-c2ccc(S(=O)(=O)NCc3ccc4c(c3)OCO4)s2)c(C)[nH]c1=O [Example 103, 5-(5-Ethyl-2-methyl-6-oxo-1,6-dihydropyridin-3-yl)-thiophene-2-sulfonic acid (1,3-benzodioxol-5-ylmethyl)amide] |
| 1.3 | CCc1cc(-c2ccc(CN3CCC(=O)CC3)s2)c(C)[nH]c1=O [Example 150, 3-Ethyl-6-methyl-5-[5-(4-oxo-piperidin-1-ylmethy)-thiophen-2-yl]-1H-pyridin-2-one hydrochloride] |
| 0.43 | CCc1cc(-c2ccc(S(=O)(=O)N(C)Cc3ccco3)s2)c(C)[nH]c1=O [Example 106, 5-(5-Ethyl-2-methyl-6-oxo-1,6-dihydro-pyridin-3-yl)thiophene-2-sulfonic acid furan-2-yl-methyl-methylamide] |
| 0.69 | CCc1cc(-c2ccc(CNCc3cccc(Cl)c3)s2)c(C)[nH]c1=O [Example 164, 5-{5-[(3-Chlorobenzylamino)methyl]thiophen-2-y}]-3-ethyl-6-methyl-1H-pyridin-2-one hydrochloride] |
| 0.57 | CCc1cc(-c2ccc(S(=O)(=O)N(C)Cc3cc(F)cc(F)c3)s2)c(C)[nH]c1=O [Example 29, 5-(5-Ethyl-2-methyl-6-oxo-1,6-dihydropyridin-3-yl)thiophene-2-sulfonic acid (3,5-difluorobenzyl)methylamide] |
| 4 | CCc1cc(-c2ccc(CNc3cc(F)cc(F)c3)s2)c(C)[nH]c1=O [Example 145, 5-{5-[(3,5-Difluoro-phenylamino)-methyl]thiophen-2-yl}-3-ethyl-6-methyl-1H-pyridin-2-one hydrochloride] |
| 0.27 | CCc1cc(-c2ccc(S(=O)(=O)NCCN3CCCCC3)o2)c(C)[nH]c1=O [Example 50, 5-(5-Ethyl-2-methyl-6-oxo-1,6-dihydropyridin-3-yl)furan-2-sulfonic acid (2-piperidin-1-yl)ethylamide hydrochloride] |
| 0.43 | CCc1cc(-c2ccc(S(=O)(=O)NCc3nccn3C)s2)c(C)[nH]c1=O [Example 80, 5-[5-Ethyl-2-methyl-6-oxo-1,6-dihydropyridin-3-yl]thiophene-2-sulfonic acid (1-methylimidazol-2-yl)methyl]amide hydrochloride] |
| 0.52 | CCc1cc(-c2ccc(CNCc3cccnc3)s2)c(C)[nH]c1=O [Example 162, 3-Ethyl-6-methyl-5-{5-{[(pyridin-3-ylmethyl)amino]methyl}thiophen-2-yl)-1H-pyridin-2-one dihydrochloride] |
| 0.92 | CCc1cc(-c2ccc(CNC3CCN(Cc4ccccc4)CC3)s2)c(C)[nH]c1=O [Example 151, 5-{5-[(1-Benzyl-piperidin-4-ylamino)-methyl]thiophen-2-yl}-3-ethyl-6-methyl-1H-pyridin-2-one dihydrochloride] |
| 4.5 | CCc1cc(-c2ccc(CN3CCOCC3)c(C#N)c2)c(C)[nH]c1=O [Example 2, 5-(5-Ethyl-2-methyl-6-oxo-1,6-dihydropyridin-3-yl)-2-(morpholin-4-yl)methylbenzonitrile] |
| 0.37 | CCc1cc(-c2ccc(S(=O)(=O)NCC(O)c3ccccc3)s2)c(C)[nH]c1=O (centres unmarked) [Example 114, 5-(5-Ethyl-2-methyl-6-oxo-1,6-dihydropyridin-3-yl)thiophene-2-sulfonic acid (2-hydroxy-2-phenylethyl)amide] |
| 2.6 | CCc1cc(-c2ccc(CNC3CCN(c4nccc(C(F)(F)F)n4)CC3)s2)c(C)[nH]c1=O [Example 139, dihydrochloride] |
| 10 | CCc1cc(-c2ccc(S(=O)(=O)NCCCN3CCC(O)C3)s2)c(C)[nH]c1=O (centres unmarked) [Example 30, 5-(5-Ethyl-2-methyl-6-oxo-1,6-dihydro-pyridin-3-yl)-thiophene-2-sulfonic acid [3-(3-hydroxy-pyrrolidin-1-yl)-propyl]-amide hydrochloride] |
| 0.48 | CCc1cc(-c2ccc(S(=O)(=O)NC3CCN(Cc4ccncc4)CC3)s2)c(C)[nH]c1=O [Example 82, 5-[5-Ethyl-2-methyl-6-oxo-1,6-dihydropyridin-3-yl]thiophene-2-sulfonic acid [1-(pyridin-4-yl)methyl(piperidin-4-yl)]amide dihydrochloride] |
| 0.4 | CCc1cc(-c2ccc(CNCc3cccc(C(F)(F)F)c3F)s2)c(C)[nH]c1=O [Example 178, 3-Ethyl-5-{5-[(2-fluoro-3-trifluoromethylbenzylamino)methyl](thiophen-2-yl)-6-methyl-1H-pyridin-2-one hydrochloride] |
| 1.6 | CCc1cc(-c2ccc(S(=O)(=O)NCCCCc3cccnc3)s2)c(C)[nH]c1=O [Example 84, 5-[5-Ethyl-2-methyl-6-oxo-1,6-dihydropyridin-3-yl]thiophene-2-sulfonic acid 4-(pyridin-3-ylbutyl)]amide hydrochloride] |
| 2.9 | CCc1cc(-c2ccc(S(=O)(=O)N3CCN(CCO)CC3)s2)c(C)[nH]c1=O [Example 91, 3-Ethyl-5-{5-[4-(2-hydroxyethyl)piperazine-1-sulfonyl]thiophen-2-yl}-6-methyl-1H-pyridin-2-one hydrochloride] |
| 0.36 | CCc1cc(-c2ccc(S(=O)(=O)NCCc3cccnc3)o2)c(C)[nH]c1=O [Example 48, 5-(5-Ethyl-2-methyl-6-oxo-1,6-dihydropyridin-3-yl)furan-2-sulfonic acid (2-pyridin-3-yl)ethylamide hydrochloride] |
| 0.72 | CCc1cc(-c2nnc(C)o2)c(C)[nH]c1=O [Example 15, 3-Ethyl-6-methyl-5-(5-methyl-1,3,4-oxadiazol-2-yl)-1H-pyridin-2-one] |
| 1.2 | CCc1cc(-c2ccc(CNc3cc(C(=O)OC)n(C)c3)s2)c(C)[nH]c1=O [Example 130, 4-{[5-(5-Ethyl-2-methyl-6-oxo-1,6-dihydro-pyridin-3-yl)-thiophen-2-ylmethyl]-amino}-1-methyl-1H-pyrrole-2-carboxylic acid methyl ester dihydrochloride] |
| 0.45 | CCc1cc(-c2ccc(CN[C@H]3CC[C@H](O)CC3)s2)c(C)[nH]c1=O [Example 125, 3-Ethyl-5-{5-[(4-hydroxycyclohexylamino)methyl]thiophen-2-yl]-6-methyl-1H-pyridin-2-one hydrochloride] |
| 2.5 | CCc1cc(-c2ccc(S(=O)(=O)N3CCN(Cc4ccc5c(c4)OCO5)CC3)s2)c(C)[nH]c1=O [Example 104, 5-[5-(4-1,3-Benzodioxol-5-ylmethylpiperazine-1-sulfonyl)-thiophen-2-yl]-3-ethyl-6-methyl-1H-pyridin-2-one hydrochloride] |
| 0.36 | CCc1cc(-c2ccc(S(=O)(=O)NC3CCN(CC4CC4)CC3)s2)c(C)[nH]c1=O [Example 74, 5-[5-Ethyl-2-methyl-6-oxo-1,6-dihydropyridin-3-yl]thiophene-2-sulfonic acid (1-cyclopropylmethylpiperidin-4-yl)amide hydrochloride] |
| 0.28 | CCc1cc(-c2ccc(CNC(=O)CN3CCCC3)s2)c(C)[nH]c1=O [Example 176, N-[5-(5-Ethyl-2-methyl-6-oxo-1,6-dihydropyridin-3-yl)thiophen-2-ylmethyl]-2-(pyrrolidin-1-yl)acetamide hydrochloride] |
| 0.35 | CCc1cc(-c2nc[nH]n2)c(C)[nH]c1=O [Example 16, 3-Ethyl-6-methyl-5-(2H-1,2,4-triazol-3-yl)-1H-pyridin-2-one] |
| 0.72 | CCc1cc(-c2ccc(S(=O)(=O)N(C)C)s2)c(C)[nH]c1=O [Example 28, 5-(5-Ethyl-2-methyl-6-oxo-1,6-dihydropyridin-3-yl)thiophene-2-sulfonic acid dimethylamide] |
